Reference: publication PMC4109671, “Cloning, Expression, Purification, and Characterization of Glutaredoxin from Antarctic Sea-Ice Bacterium Pseudoalteromonas sp. AN178” (BioMed Research International, 2014)

System: T1, rPsGrx
T1 construct: gene PsGrx; active site C12-P-F-C15 (abstract prints CPYC)
Assay: GSH-dependent HED reduction coupled to yeast glutathione reductase, NADPH consumption at […] nm; Lineweaver-Burk
Assay type: biochemical, Pseudoalteromonas sp. AN178
Conditions: HED 0.4 to 8 mM, 1 mM GSH fixed, yeast GR, apparent Km, standard assay at 25°C

OCCSSCCO [HED]
Km: 460 µM
